Values after ≈ are worked out from the molar mass of the structure shown. Square brackets hold non-standard residues; d marks the D form. Peptide text beside a SMILES is read from it. * marks the point of attachment. NMeR = CN[C@@H](CCCNC(=N)N)C(=O)O; NMeI = CC[C@H](C)[C@H](NC)C(=O)O; Tridecanoyl = CCCCCCCCCCCCC(=O)*; NMeL = CN[C@@H](CC(C)C)C(=O)O; Undecanoyl = CCCCCCCCCCC(=O)*; NMeK = CN[C@@H](CCCCN)C(=O)O
Tests used:
[1] = test system: Staphylococcus aureus; test: Antibacterial activity against methicillin-resistant Staphylococcus aureus ATCC 33591 assessed as reduction in bacterial growth incubated for 18 hrs by agar dilution method; format: functional
[2] = test system: Enterococcus faecium; test: Antibacterial activity against vancomycin resistant Enterococcus faecium ATCC 700221 assessed as inhibition of bacterial growth incubated for 48 hrs by CLSI-based broth microdilution assay; format: functional
[3] = Hemolytic activity in human RBC assessed as hemolysis measured after 24 hrs; format: toxicity, cell-based, Erythrocyte; settings: red blood cells
[4] = test system: Bacillus subtilis; test: Antimicrobial activity against Bacillus subtilis ATCC 23857 assessed as reduction in microbial growth incubated for 18 hrs by Mueller-Hinton Broth based microdilution assay; format: functional
[5] = test system: Klebsiella pneumoniae; test: Antimicrobial activity against Klebsiella pneumoniae ATCC 700603 assessed as reduction in microbial growth incubated for 18 hrs by Mueller-Hinton Broth based microdilution assay; format: functional
[6] = test system: Pseudomonas aeruginosa; test: Antimicrobial activity against Pseudomonas aeruginosa ATCC 27853 assessed as reduction in microbial growth incubated for 18 hrs by Mueller-Hinton Broth based microdilution assay; format: functional
[7] = test system: Staphylococcus aureus; test: Antibacterial activity against Staphylococcus aureus ATCC 25923 assessed as reduction in bacterial growth incubated for 18 hrs by Mueller-Hinton Broth based microdilution assay; format: functional
[8] = test system: Escherichia coli; test: Antibacterial activity against Escherichia coli ATCC 25922 assessed as reduction in bacterial growth incubated for 18 hrs by Mueller-Hinton Broth based microdilution assay; format: functional
[9] = test system: Staphylococcus aureus; test: Antibacterial activity against Staphylococcus aureus ATCC 25923 assessed as reduction in bacterial cell growth measured for 18 hrs by Mueller-Hinton broth based two-fold serial dilution method; format: functional
[10] = test system: Bacillus subtilis; test: Antibacterial activity against Bacillus subtilis ATCC 23857 assessed as reduction in bacterial cell growth measured for 18 hrs by Mueller-Hinton broth based two-fold serial dilution method; format: functional
[11] = test system: Escherichia coli; test: Antibacterial activity against Escherichia coli ATCC 25922 assessed as reduction in bacterial cell growth measured for 18 hrs by Mueller-Hinton broth based two-fold serial dilution method; format: functional
[12] = test system: Pseudomonas aeruginosa; test: Antibacterial activity against Pseudomonas aeruginosa ATCC 27853 assessed as reduction in bacterial cell growth measured for 18 hrs by Mueller-Hinton broth based two-fold serial dilution method; format: functional
[13] = test system: Klebsiella pneumoniae; test: Antibacterial activity against Klebsiella pneumoniae ATCC 700603 assessed as reduction in bacterial cell growth measured for 18 hrs by Mueller-Hinton broth based two-fold serial dilution method; format: functional

| MIC [4] [µM] | MIC [5] [µM] | MIC [6] [µM] | MIC [7] [µM] | MIC [8] [µM] | MIC [9] [µM] | MIC [10] [µM] | MIC [11] [µM] | MIC [12] [µM] | MIC [13] [µM] | Structure (SMILES) | MIC [1] [µM] | MIC [2] [µM] | HC50 at 24 h [3] [µM] |
| --- | --- | --- | --- | --- | --- | --- | --- | --- | --- | --- | --- | --- | --- |
| – | – | – | – | – | – | – | – | – | – | CC[C@H](C)[C@H](NC(=O)[C@H](CCCCN)NC(=O)[C@H](CCCCN)NC(=O)[C@H](CC(C)C)NC(=O)[C@H](CC(C)C)NC(=O)CN)C(=O)N[C@@H](CCCCN)C(=O)N[C@@H](Cc1c[nH]c2ccccc12)C(=O)N[C@@H](CC(C)C)C(=O)N[C@@H](CC(C)C)C(N)=O (H-GLLKKIKWLL-NH2) | 28.4 (≈ 34.4 µg/mL) | 22.1 (≈ 26.8 µg/mL) | 152 |
| 64 | > 128 | 32 | > 128 | > 128 | – | – | – | – | – | CC[C@H](C)[C@H](NC(=O)[C@H](CCCNC(=N)N)NC(=O)[C@H](CCCCN)NC(=O)[C@H](CC(C)C)NC(=O)[C@H](CC(C)C)NC(=O)CN)C(=O)N[C@@H](CCCCN)C(=O)N[C@H](C(=O)N[C@@H](CC(C)C)C(=O)N(C)[C@@H](CC(C)C)C(N)=O)[C@@H](C)O (H-GLLKRIKTL[NMeL]-NH2) | – | – | – |
| 128 | > 128 | 28 | > 128 | > 128 | – | – | – | – | – | CC[C@H](C)[C@H](NC(=O)[C@H](CCCNC(=N)N)NC(=O)[C@H](CCCCN)NC(=O)[C@H](CC(C)C)NC(=O)[C@H](CC(C)C)NC(=O)CN)C(=O)N[C@@H](CCCCN)C(=O)N[C@H](C(=O)N(C)[C@@H](CC(C)C)C(=O)N[C@@H](CC(C)C)C(N)=O)[C@@H](C)O (H-GLLKRIKT[NMeL]L-NH2) | – | – | – |
| 128 | > 128 | 128 | > 128 | > 128 | – | – | – | – | – | CC[C@H](C)[C@H](NC(=O)[C@H](CCCNC(=N)N)NC(=O)[C@H](CCCCN)NC(=O)[C@H](CC(C)C)NC(=O)[C@H](CC(C)C)NC(=O)CN)C(=O)N(C)[C@@H](CCCCN)C(=O)N[C@H](C(=O)N[C@@H](CC(C)C)C(=O)N[C@@H](CC(C)C)C(N)=O)[C@@H](C)O (H-GLLKRI[NMeK]TLL-NH2) | – | – | – |
| 128 | > 128 | > 128 | > 128 | > 128 | – | – | – | – | – | CC[C@H](C)[C@@H](C(=O)N[C@@H](CCCCN)C(=O)N[C@H](C(=O)N[C@@H](CC(C)C)C(=O)N[C@@H](CC(C)C)C(N)=O)[C@@H](C)O)N(C)C(=O)[C@H](CCCNC(=N)N)NC(=O)[C@H](CCCCN)NC(=O)[C@H](CC(C)C)NC(=O)[C@H](CC(C)C)NC(=O)CN (H-GLLKR[NMeI]KTLL-NH2) | – | – | – |
| 128 | > 128 | 128 | > 128 | > 128 | – | – | – | – | – | CC[C@H](C)[C@H](NC(=O)[C@H](CCCNC(=N)N)N(C)C(=O)[C@H](CCCCN)NC(=O)[C@H](CC(C)C)NC(=O)[C@H](CC(C)C)NC(=O)CN)C(=O)N[C@@H](CCCCN)C(=O)N[C@H](C(=O)N[C@@H](CC(C)C)C(=O)N[C@@H](CC(C)C)C(N)=O)[C@@H](C)O (H-GLLK[NMeR]IKTLL-NH2) | – | – | – |
| 128 | > 128 | 64 | > 128 | > 128 | – | – | – | – | – | CC[C@H](C)[C@H](NC(=O)[C@H](CCCNC(=N)N)NC(=O)[C@H](CCCCN)N(C)C(=O)[C@H](CC(C)C)NC(=O)[C@H](CC(C)C)NC(=O)CN)C(=O)N[C@@H](CCCCN)C(=O)N[C@H](C(=O)N[C@@H](CC(C)C)C(=O)N[C@@H](CC(C)C)C(N)=O)[C@@H](C)O (H-GLL[NMeK]RIKTLL-NH2) | – | – | – |
| > 128 | > 128 | 128 | > 128 | > 128 | – | – | – | – | – | CC[C@H](C)[C@H](NC(=O)[C@H](CCCNC(=N)N)NC(=O)[C@H](CCCCN)N(C)C(=O)[C@H](CC(C)C)NC(=O)[C@H](CC(C)C)NC(=O)CN)C(=O)N(C)[C@@H](CCCCN)C(=O)N[C@H](C(=O)N[C@@H](CC(C)C)C(=O)N[C@@H](CC(C)C)C(N)=O)[C@@H](C)O (H-GLL[NMeK]RI[NMeK]TLL-NH2) | – | – | – |
| > 128 | > 128 | > 128 | > 128 | > 128 | – | – | – | – | – | CC[C@H](C)[C@H](NC(=O)[C@H](CCCNC(=N)N)N(C)C(=O)[C@H](CCCCN)N(C)C(=O)[C@H](CC(C)C)NC(=O)[C@H](CC(C)C)NC(=O)CN)C(=O)N[C@@H](CCCCN)C(=O)N[C@H](C(=O)N[C@@H](CC(C)C)C(=O)N[C@@H](CC(C)C)C(N)=O)[C@@H](C)O (H-GLL[NMeK][NMeR]IKTLL-NH2) | – | – | – |
| 64 | > 128 | 64 | > 128 | > 128 | – | – | – | – | – | CC[C@H](C)[C@H](NC(=O)[C@H](CCCNC(=N)N)NC(=O)[C@H](CCCCN)NC(=O)[C@H](CC(C)C)N(C)C(=O)[C@H](CC(C)C)NC(=O)CN)C(=O)N[C@@H](CCCCN)C(=O)N[C@H](C(=O)N[C@@H](CC(C)C)C(=O)N[C@@H](CC(C)C)C(N)=O)[C@@H](C)O (H-GL[NMeL]KRIKTLL-NH2) | – | – | – |
| > 128 | > 128 | > 128 | > 128 | > 128 | – | – | – | – | – | CC[C@H](C)[C@H](NC(=O)[C@H](CCCNC(=N)N)NC(=O)[C@H](CCCCN)NC(=O)[C@H](CC(C)C)N(C)C(=O)[C@H](CC(C)C)NC(=O)CN)C(=O)N[C@@H](CCCCN)C(=O)N[C@H](C(=O)N(C)[C@@H](CC(C)C)C(=O)N[C@@H](CC(C)C)C(N)=O)[C@@H](C)O (H-GL[NMeL]KRIKT[NMeL]L-NH2) | – | – | – |
| 128 | > 128 | > 128 | > 128 | > 128 | – | – | – | – | – | CC[C@H](C)[C@@H](C(=O)N[C@@H](CCCCN)C(=O)N[C@H](C(=O)N[C@@H](CC(C)C)C(=O)N[C@@H](CC(C)C)C(N)=O)[C@@H](C)O)N(C)C(=O)[C@H](CCCNC(=N)N)NC(=O)[C@H](CCCCN)NC(=O)[C@H](CC(C)C)N(C)C(=O)[C@H](CC(C)C)NC(=O)CN (H-GL[NMeL]KR[NMeI]KTLL-NH2) | – | – | – |
| 16 | > 128 | 32 | > 128 | > 128 | – | – | – | – | – | CC[C@H](C)[C@H](NC(=O)[C@H](CCCNC(=N)N)NC(=O)[C@H](CCCCN)NC(=O)[C@H](CC(C)C)NC(=O)[C@H](CC(C)C)N(C)C(=O)CN)C(=O)N[C@@H](CCCCN)C(=O)N[C@H](C(=O)N[C@@H](CC(C)C)C(=O)N[C@@H](CC(C)C)C(N)=O)[C@@H](C)O (H-G[NMeL]LKRIKTLL-NH2) | – | – | – |
| > 128 | > 128 | 128 | > 128 | > 128 | – | – | – | – | – | CC[C@H](C)[C@H](NC(=O)[C@H](CCCNC(=N)N)NC(=O)[C@H](CCCCN)NC(=O)[C@H](CC(C)C)NC(=O)[C@H](CC(C)C)N(C)C(=O)CN)C(=O)N[C@@H](CCCCN)C(=O)N[C@H](C(=O)N[C@@H](CC(C)C)C(=O)N(C)[C@@H](CC(C)C)C(N)=O)[C@@H](C)O (H-G[NMeL]LKRIKTL[NMeL]-NH2) | – | – | – |
| – | – | – | – | – | 8 (≈ 10.8 µg/mL) | 4 (≈ 5.4 µg/mL) | 8 (≈ 10.8 µg/mL) | 8 (≈ 10.8 µg/mL) | 16 (≈ 21.6 µg/mL) | CCCCCCCCCCCCC(=O)NCC(=O)N[C@@H](CC(C)C)C(=O)N[C@@H](CC(C)C)C(=O)N[C@@H](CCCCN)C(=O)N[C@@H](CCCNC(=N)N)C(=O)N[C@H](C(=O)N[C@@H](CCCCN)C(=O)N[C@H](C(=O)N[C@@H](CC(C)C)C(=O)N[C@@H](CC(C)C)C(N)=O)[C@@H](C)O)[C@@H](C)CC (Tridecanoyl-GLLKRIKTLL-NH2) | – | – | – |
| – | – | – | – | – | 8 (≈ 10.6 µg/mL) | 4 (≈ 5.29 µg/mL) | 8 (≈ 10.6 µg/mL) | 8 (≈ 10.6 µg/mL) | 8 (≈ 10.6 µg/mL) | CCCCCCCCCCC(=O)NCC(=O)N[C@@H](CC(C)C)C(=O)N[C@@H](CC(C)C)C(=O)N[C@@H](CCCCN)C(=O)N[C@@H](CCCNC(=N)N)C(=O)N[C@H](C(=O)N[C@@H](CCCCN)C(=O)N[C@H](C(=O)N[C@@H](CC(C)C)C(=O)N[C@@H](CC(C)C)C(N)=O)[C@@H](C)O)[C@@H](C)CC (Undecanoyl-GLLKRIKTLL-NH2) | – | – | – |

From ChEMBL document CHEMBL5608163, “Structure modification of anoplin for fighting resistant bacteria” (Eur J Med Chem, 2024)
